This note sets out measurements from US8940909B2, “Indicator platform” (Biosynth AG, priority 2009, dated 2015).

One series deals with enteric bacterial cells. The series can be described thus: MDAB staining of bacterial colonies with indicators I4a and I5a on Tryptic Soy Agar, aerobic and anaerobic. The note with it: Salmonella manhattan (b-gal −); aR MDAB, equivalents 1:1; TSAYE with 40 mg/100 ml of indicator. Type of series: cell-based. The method, then: Tryptic Soy Agar (TSA) with yeast extract (0.6%) was used as the base plating medium. The media were autoclaved at 121° C. for 15 minutes and placed in a 50° C. water bath to cool. Indicators were added to the basal medium at a final concentration of 40 mg/100 ml (from 80 mg/ml stock solutions in DMF). Over night cultures of enteric bacterial cells in Brain Heart Infusion Broth were streaked onto the plates and incubated at 35° C. for 24 hours under aerobic and anaerobic conditions. After incubation, the colonial morphologies on the plates were recorded (Table III).
Weak staining was observed occasionally due to residual oxygen (micro-anaerobic conditions). Under aerobic conditions indigo (IN-stains) generally dominated the effects of MDAB staining. For example indicator system I4a/MDAB stained colonies violet under anaerobic but indigo blue under aerobic conditions.

A further series concerns Escherichia coli. As to the kind of experiment: IN and IO staining of bacterial colonies under anaerobic conditions. Type of series: cell-based. To be noted: for D: Diffusion around colonies / G: Growth of colonies / I: Intensity of color / L: Localization on colonies / S: Size of colonies: Nutrient Agar plates, anaerobically incubated with E. coli. Here is the method: Nutrient Agar plates containing 150 mg/l of various substrates and 100 mg/l IPTG were inoculated with Escherichia coli. Plates were put in an anaerobic jar (Anaerojar, Oxoid), an AnaeroGen sachet (Oxoid) was added, the jar was closed and incubated for 24 hours at 37° C.
IN staining cannot be used under anaerobic conditions.

Series [1] concerns the target E. coli beta-galactosidase (Escherichia coli, UniProt P00722). Here is the method:
Enzymatic reactions were performed in 100 mM Na2PO4 buffer, pH 7.3 containing 1 mM MgCl2 and 670 mg/l enzyme substrate. E. coli beta-galactosidase or K. lactis lactase were added to a final concentration of 1000 U/I or 1500 U/I, respectively. 30 ml reaction volumes were incubated for 5-18 hours at 37° C. with gentle shaking. The reaction product was collected by centrifugation (4400 g, 15 min), pellets were washed with 10 ml H2O and centrifuged again (4400 g, 15 min).

The subject of series [2] is Salmonella enteritidis 43. As to the kind of experiment: IO staining of colonies of beta-D-galactosidase positive/negative bacteria (Table IVb). Type of series: cell-based. The note with it: Salmonella enteritidis strain 43, b-gal −; 24 h on Nutrient Agar, 150 mg/l indicator, 100 mg/l IPTG.
Series [3] deals with Streptococcus agalactiae 195. The series is described as above. Type of series: cell-based. To be noted: Streptococcus agalactiae strain 195, b-gal −; 24 h on Nutrient Agar, 150 mg/l indicator, 100 mg/l IPTG.
Series [4] concerns beta-D-galactosidase positive/negative bacteria. The series can be described thus: IO staining of colonies of beta-D-galactosidase positive/negative bacteria (Table IVb), hue named in column head. It counts as cell-based. To be noted: hue of fluorescence of stained colonies; 24 h on Nutrient Agar, 150 mg/l indicator, 100 mg/l IPTG.
Series [5] deals with beta-galactosidase positive Eschericha coli (NM1). The series can be described thus: IO staining of bacterial colonies on Nutrient Agar (color, fluorescence, localization, growth). On C: Color of colonies (strength): key: −: absent; +/−: weak; +: strong; ++: very strong. On F: Fluorescence of colonies (strength): key: −: absent; +/−: weak; +: strong; ++: very strong. On G: Growth of colonies: key: −: absent; +/−: weak; +: strong; ++: very strong. On L: Localization of stain on colonies: key: −: absent; +/−: weak; +: strong; ++: very strong. It counts as cell-based, E. coli. The note with it: 150 mg/l substrate and 100 mg/l IPTG. The method in brief:
(§1)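 Indicators were added at 150 mg/l final, optionally with 100 mg/l IPTG, to nutrient agar at pH 7.4. Plates were inoculated with β-gal-positive E. coli NM1 or β-gal-negative S. enteritidis and incubated at 37 °C. Colony color was inspected at 16–48 h under white light, and fluorescence under 366 nm UV and by plate-reader scans of 48 h cells.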

In series [6] the test system is beta-galactosidase negative Salmonella enteritidis (RKI 05/07992). Type of series: cell-based. To be noted: S. enteritidis (b-gal negative), 24 h, 150 mg/l substrate and 100 mg/l IPTG. Summed up: as §1; further: key: −: absent; +/−: weak; +: strong; ++: very strong
The subject of another series is Klebsiella pneumoniae. The series can be described thus: IO staining of bacterial colonies on Blood Agar plates. On Growth: key: −: absent; +/−: weak; +: strong; ++: very strong. It counts as cell-based. The note with it: 24 h on Blood Agar, 150 mg/l I21a and 100 mg/l IPTG. The method, then: Standard commercially available Blood Agar plates were impregnated with 150 mg/l 1-(2-benzoylphenyl)-6-chloro-1H-indol-3-yl-beta-D-galactopyranoside (I21a) and 100 mg/l IPTG. The plate was inoculated with Klebsiella pneumoniae.
IO stain contrasts very well with the agar plate. Further, despite the quenching effect of blood IO fluorescence is fully maintained and readily detectable.

E. coli beta-galactosidase, sequence (P00722 2-1024): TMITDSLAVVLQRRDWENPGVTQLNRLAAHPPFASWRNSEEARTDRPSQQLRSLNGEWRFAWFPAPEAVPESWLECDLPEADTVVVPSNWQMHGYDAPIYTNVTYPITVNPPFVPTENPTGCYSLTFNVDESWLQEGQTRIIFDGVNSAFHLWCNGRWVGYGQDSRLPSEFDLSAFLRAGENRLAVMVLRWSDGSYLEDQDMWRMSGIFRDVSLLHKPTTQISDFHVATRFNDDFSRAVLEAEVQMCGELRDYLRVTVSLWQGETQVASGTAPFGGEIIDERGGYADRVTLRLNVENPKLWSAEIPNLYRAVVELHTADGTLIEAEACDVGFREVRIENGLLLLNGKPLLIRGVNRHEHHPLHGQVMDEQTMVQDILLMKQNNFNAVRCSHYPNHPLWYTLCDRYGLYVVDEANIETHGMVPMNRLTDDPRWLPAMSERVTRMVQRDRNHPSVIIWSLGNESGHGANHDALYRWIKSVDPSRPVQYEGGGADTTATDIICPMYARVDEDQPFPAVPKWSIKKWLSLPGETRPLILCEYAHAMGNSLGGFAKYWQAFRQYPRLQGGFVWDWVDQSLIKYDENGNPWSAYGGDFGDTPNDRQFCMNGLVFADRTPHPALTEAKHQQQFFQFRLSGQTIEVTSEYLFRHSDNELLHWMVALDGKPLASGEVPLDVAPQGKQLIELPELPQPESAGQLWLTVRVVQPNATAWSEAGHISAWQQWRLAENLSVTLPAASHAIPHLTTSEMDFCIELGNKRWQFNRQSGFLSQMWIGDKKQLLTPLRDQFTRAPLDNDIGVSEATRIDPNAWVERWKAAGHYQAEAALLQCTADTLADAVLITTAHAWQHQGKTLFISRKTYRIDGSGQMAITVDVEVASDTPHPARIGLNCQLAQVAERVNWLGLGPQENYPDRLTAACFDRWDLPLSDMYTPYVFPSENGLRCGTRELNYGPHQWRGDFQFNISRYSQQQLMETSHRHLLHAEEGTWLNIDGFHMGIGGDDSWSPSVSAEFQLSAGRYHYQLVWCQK

With “5-Bromo-4-chloro-1H-indol-3-yl-beta-D-galactopyranoside [Indicator I4a, reference compound]”, in the series on enteric bacterial cells, the “colonial morphology, aerobic conditions” value is recorded as “Cream colored colonies” and the “colonial morphology, microaerobic (anaerobic) conditions” value is on record as “Cream colored colonies”. Moreover, the “IN staining under anaerobic conditions” value in the series with Escherichia coli (E. coli, anaerobic) is recorded as “failure”. In the series with Escherichia coli, the “D: Diffusion around colonies” value is reported as “++”, the “G: Growth of colonies” value is given as “+/−”, the “I: Intensity of color” value is listed as “+/−” and the “L: Localization on colonies” value was “−”. The “S: Size of colonies” value in the series with Escherichia coli is listed as “pinpoint”. Also, the “Signal upon incubation with beta-D-galactosidase in the absence of oxygen” value in series [1] (blend with MDAB, absence of oxygen) was “pink dye”. Moreover, in [2], the “C: Color of colonies” value was “−”, the “F: Fluorescence of colonies” value was “−” and the “G: Growth of colonies” value is on record as “+”. Further, in series [3], the “C: Color of colonies” value is given as “−”, the “F: Fluorescence of colonies” value is listed as “−” and the “G: Growth of colonies” value is given as “+/−”. Also, the “F: Fluorescence of colonies (hue)” value in series [4] is given as “−”.

In the case of `COc1ccc(C(=O)c2ccccc2-n2cc(O[C@@H]3O[C@H](CO)[C@H](O)[C@H](O)[C@H]3O)c3c(Cl)c(Br)ccc32)c(OC)c1` [Indicator I28a, 5-Bromo-4-chloro-1-[2-(2,4-dimethoxybenzoyl)phenyl]-1H-indol-3-yl-beta-D-galactopyranoside], the “F: Fluorescence of colonies (colour)” value in [5] (24 h, 366 nm UV) was “(red)”. In addition, the “C: Color of colonies (colour of stain)” value in series [5] (24 h on Nutrient Agar) is given as “orange”. Further, the “G: Growth of colonies” value in series [5] (E. coli, 24 h) is on record as “+”; in series [2] it was “+”; in [3], “+/−”. The “L: Localization of stain on colonies” value in series [5] (E. coli, 24 h) is “+”. Moreover, the “F: Fluorescence of colonies (strength)” value in [5] (E. coli, 24 h, 366 nm UV) is “+/−”; in series [6] (366 nm UV), “−”. The “C: Color of colonies (strength)” value in [5] (E. coli, 24 h on Nutrient Agar) is reported as “+”; in [6], “−”. Also, the “C: Color of colonies” value in [2] and in series [3] was “−” throughout. For the same compound, the “F: Fluorescence of colonies” value in series [2] and in series [3] was “−” in each case.

With `O=C(c1ccccc1)c1ccccc1-n1cc(O[C@@H]2O[C@H](CO)[C@H](O)[C@H](O)[C@H]2O)c2ccc(Cl)cc21` [Indicator I21a, 1-(2-Benzoylphenyl)-6-chloro-1H-indol-3-yl-beta-D-galactopyranoside], in the series with Escherichia coli, the “D: Diffusion around colonies” value was “+/−”, the “G: Growth of colonies” value was “+”, the “I: Intensity of color” value is listed as “+” and the “L: Localization on colonies” value is recorded as “+”. The “S: Size of colonies” value in the series with Escherichia coli was determined as 0.7 mm. For the same compound, in the series on Klebsiella pneumoniae, the “Color of colonies UV (366 nm)” value is “Yellow-orange on a dark background”, the “Color of colonies white/visible” value is “Yellow” and the Growth entry is given as “+”. Moreover, the “Product of incubation with beta-D-galactosidase” value in series [1] (24 h) was “bright yellow precipitate”. In [2], the “C: Color of colonies” value is reported as “−”, the “F: Fluorescence of colonies” value was “−” and the “G: Growth of colonies” value is “+”. Also, in series [3], the “C: Color of colonies” value is reported as “−”, the “F: Fluorescence of colonies” value is reported as “−” and the “G: Growth of colonies” value was “+/−”. Further, the “F: Fluorescence of colonies (hue)” value in series [4] is “y-g”.
